Assay [1] has as its system NCI-H1975. Description: Antiproliferative activity against human NCI-H1975 cells incubated for 72 hrs by MTS assay. It counts as functional, cell-based. The note with it: NCI-H1975, 72 h. For orientation: Tetrazolium dyes change colour on reduction, which living cells bring about.
In assay [2] the test system is NCI-H1975. Kind of assay: cells. It counts as functional, cell-based. To be noted: Homo sapiens, NCI-H1975, 72 h.
The next assay relates to A549. Description: Antiproliferative activity against human A549 cells harbouring wild type EGFR incubated for 72 hrs by SRB assay. It counts as functional, cell-based. The note with it: A549, 72 h.
The test system of another assay is MDA-MB-231. Description: Antiproliferative activity against human MDA-MB-231 cells incubated for 72 hrs by SRB assay. It is filed as functional, cell-based. To be noted: MDA-MB-231, 72 h. Background: Sulforhodamine B stains cellular protein and so reports cell mass.
In the next assay the test system is KB. Kind of assay: Antiproliferative activity against human KB cells incubated for 72 hrs by SRB assay. It counts as functional, cell-based.
Assay [3] can be described thus: Antiproliferative activity against human KB-VIN10 cells incubated for 72 hrs by SRB assay. It is filed as functional, cell-based. The note with it: KB-VIN10, 72 h.
For the next assay, the system named is MCF7. Kind of assay: Antiproliferative activity against human MCF7 cells incubated for 72 hrs by SRB assay. It is filed as functional, cell-based. The note with it: MCF7, 72 h.
In assay [4] the target is Epidermal growth factor receptor (Homo sapiens, UniProt P00533). Description: biochemical. It counts as cell-based, Sf9.
In assay [5] the target is Epidermal growth factor receptor (Homo sapiens, UniProt P00533, L858R/T790M). Description: biochemical. It is filed as cell-based, Sf9.
The target in assay [6] is Epidermal growth factor receptor (Homo sapiens, UniProt P00533, C797S/L858R/T790M). Kind of assay: biochemical. It is filed as cell-based, Sf9.
For assay [7], the system named is NCI-H1975. Description: Antiproliferative activity against human NCI-H1975 cells assessed as induction of NO production at 100 uM incubated for 150 mins by Griess reagent based assay. It counts as functional, cell-based. (Nitrite, measured by Griess reagent, commonly stands in for NO production.)

For 21 compounds, IC50 and Activity results are on record in ChEMBL document CHEMBL4414650, “Discovery of an Oleanolic Acid/Hederagenin-Nitric Oxide Donor Hybrid as an EGFR Tyrosine Kinase Inhibitor for Non-Small-Cell Lung Cancer” (J Nat Prod, 2019).

Active and inactive are the calls of the source. The rule behind the calls is not given here.

Sequence of Epidermal growth factor receptor (Homo sapiens, UniProt P00533) (P00533 whole entry): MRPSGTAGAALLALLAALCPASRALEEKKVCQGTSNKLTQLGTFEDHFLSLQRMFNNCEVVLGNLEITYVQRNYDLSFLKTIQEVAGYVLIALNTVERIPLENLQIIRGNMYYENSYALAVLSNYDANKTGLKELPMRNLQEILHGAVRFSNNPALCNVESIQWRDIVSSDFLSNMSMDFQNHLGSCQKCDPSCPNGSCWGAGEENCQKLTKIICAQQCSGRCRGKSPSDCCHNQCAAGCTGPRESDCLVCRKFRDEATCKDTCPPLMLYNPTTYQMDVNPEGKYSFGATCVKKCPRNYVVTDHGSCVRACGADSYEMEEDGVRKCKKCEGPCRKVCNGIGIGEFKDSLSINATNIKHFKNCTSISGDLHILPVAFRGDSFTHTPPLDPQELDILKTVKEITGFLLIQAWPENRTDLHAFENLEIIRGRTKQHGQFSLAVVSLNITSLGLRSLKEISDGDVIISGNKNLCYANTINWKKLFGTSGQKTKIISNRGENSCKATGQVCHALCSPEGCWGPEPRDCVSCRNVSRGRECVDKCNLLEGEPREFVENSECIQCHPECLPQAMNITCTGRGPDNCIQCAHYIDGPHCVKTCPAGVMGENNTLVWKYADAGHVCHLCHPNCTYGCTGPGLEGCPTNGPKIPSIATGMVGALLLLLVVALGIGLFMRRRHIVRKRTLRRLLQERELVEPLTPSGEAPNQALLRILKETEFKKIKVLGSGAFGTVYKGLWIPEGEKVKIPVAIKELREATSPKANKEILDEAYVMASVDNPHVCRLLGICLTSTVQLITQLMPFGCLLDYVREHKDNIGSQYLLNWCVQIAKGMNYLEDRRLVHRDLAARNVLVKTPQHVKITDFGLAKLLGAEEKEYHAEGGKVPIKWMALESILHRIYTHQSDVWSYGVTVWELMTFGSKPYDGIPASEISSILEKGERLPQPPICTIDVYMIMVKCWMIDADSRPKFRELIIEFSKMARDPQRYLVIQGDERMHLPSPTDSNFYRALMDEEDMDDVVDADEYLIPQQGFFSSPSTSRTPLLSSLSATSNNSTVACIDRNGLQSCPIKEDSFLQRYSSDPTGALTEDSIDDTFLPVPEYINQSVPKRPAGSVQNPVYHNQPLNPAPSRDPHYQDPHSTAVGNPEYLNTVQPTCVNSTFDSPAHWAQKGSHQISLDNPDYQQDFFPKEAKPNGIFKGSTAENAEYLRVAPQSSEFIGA
Sequence of Epidermal growth factor receptor (Homo sapiens, UniProt P00533, L858R/T790M) (P00533 25-1210 T790M/L858R limits assumed): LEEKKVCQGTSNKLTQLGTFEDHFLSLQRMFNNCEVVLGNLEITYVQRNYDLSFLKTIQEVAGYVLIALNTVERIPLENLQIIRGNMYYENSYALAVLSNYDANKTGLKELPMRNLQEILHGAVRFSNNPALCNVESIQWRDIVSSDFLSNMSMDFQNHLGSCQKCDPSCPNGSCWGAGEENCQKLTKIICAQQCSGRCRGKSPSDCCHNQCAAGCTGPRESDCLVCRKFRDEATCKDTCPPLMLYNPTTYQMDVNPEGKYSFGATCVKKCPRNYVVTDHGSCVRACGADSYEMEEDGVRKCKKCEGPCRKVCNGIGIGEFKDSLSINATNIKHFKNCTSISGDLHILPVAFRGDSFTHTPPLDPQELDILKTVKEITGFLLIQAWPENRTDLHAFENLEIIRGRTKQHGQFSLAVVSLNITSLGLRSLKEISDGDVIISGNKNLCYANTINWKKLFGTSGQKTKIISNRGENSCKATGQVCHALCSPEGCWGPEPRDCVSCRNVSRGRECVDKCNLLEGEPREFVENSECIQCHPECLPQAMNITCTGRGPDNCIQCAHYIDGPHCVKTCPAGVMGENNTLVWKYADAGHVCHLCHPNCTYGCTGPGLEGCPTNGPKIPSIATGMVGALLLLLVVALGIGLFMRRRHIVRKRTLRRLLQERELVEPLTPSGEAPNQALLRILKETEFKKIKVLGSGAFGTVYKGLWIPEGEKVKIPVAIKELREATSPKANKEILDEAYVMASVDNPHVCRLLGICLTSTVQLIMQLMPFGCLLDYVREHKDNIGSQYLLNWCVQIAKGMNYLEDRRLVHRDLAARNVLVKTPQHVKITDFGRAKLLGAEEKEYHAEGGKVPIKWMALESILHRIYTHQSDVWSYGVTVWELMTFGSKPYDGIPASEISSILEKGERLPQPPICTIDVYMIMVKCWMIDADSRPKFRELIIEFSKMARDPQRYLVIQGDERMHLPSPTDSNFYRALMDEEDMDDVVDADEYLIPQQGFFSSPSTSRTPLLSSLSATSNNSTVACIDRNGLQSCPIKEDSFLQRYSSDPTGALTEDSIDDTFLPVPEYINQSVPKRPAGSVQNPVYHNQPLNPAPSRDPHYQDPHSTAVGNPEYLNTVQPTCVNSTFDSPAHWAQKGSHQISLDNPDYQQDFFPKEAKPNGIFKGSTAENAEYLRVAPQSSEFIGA
Sequence of Epidermal growth factor receptor (Homo sapiens, UniProt P00533, C797S/L858R/T790M) (P00533 25-1210 T790M/C797S/L858R limits assumed): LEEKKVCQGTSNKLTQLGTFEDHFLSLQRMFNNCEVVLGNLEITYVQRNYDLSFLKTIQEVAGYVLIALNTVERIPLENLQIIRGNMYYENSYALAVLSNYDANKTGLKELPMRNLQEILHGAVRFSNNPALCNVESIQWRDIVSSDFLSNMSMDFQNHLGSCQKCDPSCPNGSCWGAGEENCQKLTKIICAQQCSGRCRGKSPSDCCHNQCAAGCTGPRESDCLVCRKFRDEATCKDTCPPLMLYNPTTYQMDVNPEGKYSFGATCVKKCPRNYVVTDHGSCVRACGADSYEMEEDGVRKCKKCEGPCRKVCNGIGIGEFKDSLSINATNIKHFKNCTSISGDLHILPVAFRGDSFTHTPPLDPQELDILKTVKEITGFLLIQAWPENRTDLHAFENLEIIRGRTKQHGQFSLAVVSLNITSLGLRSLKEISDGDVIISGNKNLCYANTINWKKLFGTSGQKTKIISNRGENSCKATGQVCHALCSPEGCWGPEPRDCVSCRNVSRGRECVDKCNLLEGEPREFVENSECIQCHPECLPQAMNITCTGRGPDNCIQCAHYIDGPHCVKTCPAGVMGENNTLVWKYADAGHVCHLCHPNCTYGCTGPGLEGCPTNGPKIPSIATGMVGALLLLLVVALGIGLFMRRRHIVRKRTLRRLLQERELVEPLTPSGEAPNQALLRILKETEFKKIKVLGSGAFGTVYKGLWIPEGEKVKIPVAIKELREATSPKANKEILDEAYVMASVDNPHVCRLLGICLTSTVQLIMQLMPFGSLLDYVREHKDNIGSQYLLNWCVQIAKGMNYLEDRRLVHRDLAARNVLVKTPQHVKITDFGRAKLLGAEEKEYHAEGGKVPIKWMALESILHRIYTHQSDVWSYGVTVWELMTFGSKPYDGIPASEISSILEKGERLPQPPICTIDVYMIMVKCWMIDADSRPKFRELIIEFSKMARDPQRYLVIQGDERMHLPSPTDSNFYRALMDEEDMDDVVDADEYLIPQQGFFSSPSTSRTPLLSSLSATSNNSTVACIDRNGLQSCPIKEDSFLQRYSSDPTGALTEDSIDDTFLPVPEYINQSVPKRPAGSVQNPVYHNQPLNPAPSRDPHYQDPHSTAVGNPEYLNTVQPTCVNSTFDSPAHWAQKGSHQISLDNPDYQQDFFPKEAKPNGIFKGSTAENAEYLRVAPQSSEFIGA

Take `C=CC(=O)Nc1cc(Nc2nccc(-c3cn(C)c4ccccc34)n2)c(OC)cc1N(C)CCN(C)C` [OSIMERTINIB]: the figures for the IC50 with NCI-H1975 [1] and in the assay on NCI-H1975 [2] were […] and […], respectively.
As to `CC1(C)CC[C@]2(C(=O)OCCCCO[N+](=O)[O-])CC[C@]3(C)C(=CC[C@@H]4[C@@]5(C)CC[C@H](OC(=O)c6ccccc6)C(C)(C)[C@@H]5CC[C@]43C)[C@@H]2C1`, the IC50 (commonly the concentration at which inhibition is half-maximal) in the assay with A549 was > 10 µM; with MDA-MB-231, > 10 µM; with KB, > 10 µM; in [3], > 10 µM; with MCF7, > 10 µM; in [4], > 20 µM. Further, the IC50 in [5] is > 20 µM; in assay [6], > 20 µM; in the assay with NCI-H1975 [1] it was > 10 µM; in the assay on NCI-H1975 [2] it was > 10 µM.
In the case of `CC1(C)CC[C@]2(C(=O)OCCCCO[N+](=O)[O-])CC[C@]3(C)C(=CC[C@@H]4[C@@]5(C)CC[C@H](O)C(C)(C)[C@@H]5CC[C@]43C)[C@@H]2C1`, the IC50 in the assay on A549 was 9.2 µM; in the assay with MDA-MB-231, > 10 µM; in the assay with KB, > 10 µM; in assay [3], > 10 µM; in the assay with MCF7, > 10 µM.
With `CC1(C)CC[C@]2(C(=O)OCCCCO[N+](=O)[O-])CC[C@]3(C)C(=CC[C@@H]4[C@@]5(C)CC[C@H](OC(=O)c6ccc([N+](=O)[O-])cc6)C(C)(C)[C@@H]5CC[C@]43C)[C@@H]2C1`, the IC50 in [4] was > 20 µM; in assay [5] it was > 20 µM; in assay [6], > 20 µM; in the assay with NCI-H1975 [1], > 10 µM; with NCI-H1975 [2], > 10 µM.
As to `CC1(C)CC[C@]2(C(=O)OCCCCO[N+](=O)[O-])CC[C@]3(C)C(=CC[C@@H]4[C@@]5(C)CC[C@H](OC(=O)/C=C/c6ccc7c(c6)OCO7)C(C)(C)[C@@H]5CC[C@]43C)[C@@H]2C1`, the IC50 in [4] is > 20 µM; in [5] it was > 20 µM; in assay [6], > 20 µM; in the assay on NCI-H1975 [1], > 10 µM; with NCI-H1975 [2], > 10 µM.
Consider `CC(=O)OC[C@@]1(C)[C@@H]2CC[C@]3(C)[C@H](CC=C4[C@@H]5CC(C)(C)CC[C@]5(C(=O)O)CC[C@]43C)[C@@]2(C)CC[C@@H]1OC(C)=O`, for which the IC50 in the assay with MDA-MB-231 is > 10 µM; in [3] it was 8.5 µM; with MCF7, > 10 µM.
As to `CC(=O)O[C@H]1CC[C@]2(C)[C@H]3CC=C4[C@@H]5CC(C)(C)CC[C@]5(C(=O)O)CC[C@@]4(C)[C@]3(C)CC[C@H]2C1(C)C` [ACETYL OLEANOLIC ACID], the IC50 was 5.8 µM in the assay with A549; > 10 µM in the assay on MDA-MB-231; 7.6 µM in the assay on KB; 7.6 µM in assay [3]; > 10 µM with MCF7.
`C=CC(=O)O[C@H]1CC[C@]2(C)[C@H]3CC=C4[C@@H]5CC(C)(C)CC[C@]5(C(=O)OCCCCO[N+](=O)[O-])CC[C@@]4(C)[C@]3(C)CC[C@H]2C1(C)C`: the IC50 in the assay with A549 is > 10 µM; in the assay on MDA-MB-231 it was > 10 µM; with KB it was > 10 µM; in [3], > 10 µM; in the assay on MCF7, > 10 µM; in assay [4] it was > 20 µM. The IC50 in assay [5] is > 20 µM; in assay [6], > 20 µM; in the assay on NCI-H1975 [1] it was > 10 µM; in the assay with NCI-H1975 [2] it was > 10 µM.
With `CC1(C)CC[C@]2(C(=O)OCCCCO[N+](=O)[O-])CC[C@]3(C)C(=CC[C@@H]4[C@@]5(C)CC[C@H](O)[C@@](C)(CO)[C@@H]5CC[C@]43C)[C@@H]2C1`, the IC50 in the assay with A549 is 9.3 µM; in the assay on MDA-MB-231, > 10 µM; in the assay with KB, > 10 µM; in [3], > 10 µM; in the assay with MCF7, 8 µM; in [4], 0.19 µM. For the same compound, the IC50 in assay [5] is > 20 µM; in assay [6] it was 0.04 µM; in the assay with NCI-H1975 [1], > 10 µM; with NCI-H1975 [2], > 10 µM. Besides, the outcome in the assay on NCI-H1975 [7] was Active.
With `CC1(C)CC[C@]2(C(=O)OCCCCCCO[N+](=O)[O-])CC[C@]3(C)C(=CC[C@@H]4[C@@]5(C)CC[C@H](O)[C@@](C)(CO)[C@@H]5CC[C@]43C)[C@@H]2C1`, the IC50 with A549 is > 10 µM; with MDA-MB-231, > 10 µM; with KB, > 10 µM; in assay [3] it was > 40 µM; in the assay on MCF7, > 10 µM.
For `CC(=O)O[C@H]1CC[C@]2(C)[C@H]3CC=C4[C@@H]5CC(C)(C)CC[C@]5(C(=O)OCCCCCCO[N+](=O)[O-])CC[C@@]4(C)[C@]3(C)CC[C@H]2C1(C)C`, the IC50 with A549 came out at 5 µM; in the assay on MDA-MB-231 it was 5.3 µM; in the assay on KB it was 5.1 µM; in assay [3] it was 7.6 µM; with MCF7, 6.4 µM. The outcome in the assay with NCI-H1975 [7] was Active.
As for `CC(=O)OC[C@@]1(C)[C@@H]2CC[C@]3(C)[C@H](CC=C4[C@@H]5CC(C)(C)CC[C@]5(C(=O)OCCCCCCO[N+](=O)[O-])CC[C@]43C)[C@@]2(C)CC[C@@H]1OC(C)=O`, the IC50 was 4.7 µM with A549; 5.1 µM in the assay with MDA-MB-231; 4.8 µM with KB; 4.9 µM in [3]; 4.6 µM in the assay on MCF7. For the same compound, the outcome in the assay with NCI-H1975 [7] was Active.
Turning to `CC1(C)CC[C@]2(C(=O)O)CC[C@]3(C)C(=CC[C@@H]4[C@@]5(C)CC[C@H](O)C(C)(C)[C@@H]5CC[C@]43C)[C@@H]2C1` [OLEANOLIC_ACID], the IC50 is 6.4 µM with A549; > 10 µM with MDA-MB-231; > 10 µM in the assay with KB; > 10 µM in [3]; > 10 µM in the assay with MCF7; > 20 µM in assay [4]. In addition, the IC50 was > 20 µM in [5], > 20 µM in assay [6], > 10 µM in the assay with NCI-H1975 [1] and > 10 µM in the assay with NCI-H1975 [2].
As to `CC(=O)O[C@H]1C(=O)[C@@]2(C)[C@H]([C@H](OC(=O)c3ccccc3)[C@]3(O)C[C@H](OC(=O)[C@H](O)[C@@H](NC(=O)c4ccccc4)c4ccccc4)C(C)=C1C3(C)C)[C@]1(OC(C)=O)CO[C@@H]1C[C@@H]2O` [PACLITAXEL], the IC50 (in assay [3]; in the assay with MCF7) was > 10 µM throughout.
Regarding `CC1(C)CC[C@]2(C(=O)O)CC[C@]3(C)C(=CC[C@@H]4[C@@]5(C)CC[C@H](O)[C@@](C)(CO)[C@@H]5CC[C@]43C)[C@@H]2C1` [HEDERAGENIN], the 50% inhibitory concentration (IC50) with A549 is > 10 µM; in the assay with MDA-MB-231 it was > 10 µM; in the assay with KB, > 10 µM; in assay [3], > 10 µM; in the assay on MCF7 it was > 10 µM; in assay [4], > 20 µM. Besides, the IC50 in [5] was > 20 µM; in assay [6], > 20 µM; in the assay on NCI-H1975 [1], > 10 µM; with NCI-H1975 [2], > 10 µM.
Turning to `COc1cc(N2CCC(N3CCN(C)CC3)CC2)ccc1Nc1ncc(Cl)c(Nc2ccccc2P(C)(C)=O)n1` [BRIGATINIB], the figures for the IC50 in the assay with NCI-H1975 [1] and in the assay with NCI-H1975 [2] were 0.62 µM and 0.64 µM, respectively.
`CC1(C)CC[C@]2(C(=O)OCCCCO[N+](=O)[O-])CC[C@]3(C)C(=CC[C@@H]4[C@@]5(C)CC[C@H](OCc6ccccc6)C(C)(C)[C@@H]5CC[C@]43C)[C@@H]2C1`: the IC50 in the assay on A549 was > 10 µM; in the assay on MDA-MB-231, > 10 µM; in the assay with KB, > 10 µM; in assay [3], > 10 µM; with MCF7, > 10 µM; in [4] it was > 20 µM. The IC50 in assay [5] was > 20 µM; in [6], > 20 µM; with NCI-H1975 [1] it was > 10 µM; with NCI-H1975 [2] it was > 10 µM.
Regarding `CC(=O)OC[C@@]1(C)[C@@H]2CC[C@]3(C)[C@H](CC=C4[C@@H]5CC(C)(C)CC[C@]5(C(=O)OCCO[N+](=O)[O-])CC[C@]43C)[C@@]2(C)CC[C@@H]1OC(C)=O`, the IC50 with A549 was 5.3 µM; in the assay with MDA-MB-231, 7.3 µM; with KB it was 7 µM; in assay [3], > 40 µM; in the assay on MCF7 it was > 10 µM. The outcome in the assay on NCI-H1975 [7] was Active.
Take `CC(=O)O[C@H]1CC[C@]2(C)[C@H]3CC=C4[C@@H]5CC(C)(C)CC[C@]5(C(=O)OCCO[N+](=O)[O-])CC[C@@]4(C)[C@]3(C)CC[C@H]2C1(C)C`: the IC50 is 6.3 µM in the assay on A549; 7.9 µM in the assay with MDA-MB-231; 4.9 µM with KB; > 10 µM in assay [3]; 6.8 µM in the assay with MCF7. The result in the assay on NCI-H1975 [7] was Active.
Turning to `CC1(C)CC[C@]2(C(=O)OCCCCCCO[N+](=O)[O-])CC[C@]3(C)C(=CC[C@@H]4[C@@]5(C)CC[C@H](O)C(C)(C)[C@@H]5CC[C@]43C)[C@@H]2C1`, the IC50 (in the assay with A549; with MDA-MB-231; in the assay with KB; in [3]; in the assay on MCF7) was > 10 µM in each case.
For `CC1(C)CC[C@]2(C(=O)OCCO[N+](=O)[O-])CC[C@]3(C)C(=CC[C@@H]4[C@@]5(C)CC[C@H](O)[C@@](C)(CO)[C@@H]5CC[C@]43C)[C@@H]2C1`, the IC50 in the assay with A549 is > 10 µM; with MDA-MB-231, 9.2 µM; in the assay on KB it was 9.5 µM; in [3] it was > 10 µM; in the assay with MCF7 it was > 10 µM. Moreover, the outcome in the assay with NCI-H1975 [7] was Active.
